From PubChem BioAssay AID1963451 (Molecular Pharmacology Branch, DTP, NCI, 2024)

Test system: 521955-158-R6-J3-PDC complex spheroid growth, % test/control
Experiment: Anticancer human tumor 521955-158-R6-J3-PDC patient-derived pancreatic carcinoma cell line growth inhibition [Asc]
Conditions: for IC50: curve of first compound; for viability, T/C: stronger effect = lower value
How it was run: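 Complex solid-tumor spheroids incorporating human endothelial and mesenchymal stem cells received single agents or combinations over half-log dilution ranges anchored to clinical Cmax.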
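Note: spheroids exposed to compounds for 7 days.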
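Throughout, for viability, T/C: 100% = DMSO vehicle control wells.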

With Cc1nc(N2CCC3(CC2)COC(C)C3N)c(CO)nc1Sc1ccnc(N)c1Cl (configuration not stated) + CCN1C(C(=O)NC23CCC(C(=O)O)(CC2)CC3)C(c2cccc(Cl)c2F)C2(C(=O)Nc3cc(Cl)ccc32)C12CCCCC2 the IC50 (second compound 0.00949 µM) was > 3 µM, the IC50 (second compound 0.03 µM) was > 3 µM and the IC50 (second compound 0.0949 µM) was > 3 µM. For the same compound, the IC50 (second compound 0.3 µM) was > 3 µM, the IC50 (second compound 0.949 µM) was > 3 µM and the IC50 (second compound 3 µM) was > 3 µM. The viability, T/C (second compound 0.00949 µM, first compound 0.00949 µM) was 128%, the viability, T/C (second compound 0.00949 µM, first compound 0.03 µM) was 107% and the viability, T/C (second compound 0.00949 µM, first compound 0.0949 µM) was 92.8%. For the same compound, the viability, T/C (second compound 0.00949 µM, first compound 0.3 µM) was 93.8%, the viability, T/C (second compound 0.00949 µM, first compound 0.949 µM) was 77.8% and the viability, T/C (second compound 0.00949 µM, first compound 3 µM) was 74.5%. It also gave a viability, T/C (second compound 0.03 µM, first compound 0.00949 µM) of 109%, a viability, T/C (second compound 0.03 µM, first compound 0.03 µM) of 104% and a viability, T/C (second compound 0.03 µM, first compound 0.0949 µM) of 91%. The viability, T/C (second compound 0.03 µM, first compound 0.3 µM) was 106%, the viability, T/C (second compound 0.03 µM, first compound 0.949 µM) was 93.8% and the viability, T/C (second compound 0.03 µM, first compound 3 µM) was 85.8%. It also gave a viability, T/C (second compound 0.0949 µM, first compound 0.00949 µM) of 115%, a viability, T/C (second compound 0.0949 µM, first compound 0.03 µM) of 113% and a viability, T/C (second compound 0.0949 µM, first compound 0.0949 µM) of 106%. The viability, T/C (second compound 0.0949 µM, first compound 0.3 µM) was 82.6%, the viability, T/C (second compound 0.0949 µM, first compound 0.949 µM) was 82.2% and the viability, T/C (second compound 0.0949 µM, first compound 3 µM) was 79.8%. The viability, T/C (second compound 0.3 µM, first compound 0.00949 µM) was 112%, the viability, T/C (second compound 0.3 µM, first compound 0.03 µM) was 82.6% and the viability, T/C (second compound 0.3 µM, first compound 0.0949 µM) was 113%. The viability, T/C (second compound 0.3 µM, first compound 0.3 µM) was 95%, the viability, T/C (second compound 0.3 µM, first compound 0.949 µM) was 83% and the viability, T/C (second compound 0.3 µM, first compound 3 µM) was 92.6%. It also gave a viability, T/C (second compound 0.949 µM, first compound 0.00949 µM) of 133%, a viability, T/C (second compound 0.949 µM, first compound 0.03 µM) of 104% and a viability, T/C (second compound 0.949 µM, first compound 0.0949 µM) of 93.5%. The viability, T/C (second compound 0.949 µM, first compound 0.3 µM) was 92.4%, the viability, T/C (second compound 0.949 µM, first compound 0.949 µM) was 82.2% and the viability, T/C (second compound 0.949 µM, first compound 3 µM) was 83.1%. For the same compound, the viability, T/C (second compound 3 µM, first compound 0.00949 µM) was 114%, the viability, T/C (second compound 3 µM, first compound 0.03 µM) was 90.2% and the viability, T/C (second compound 3 µM, first compound 0.0949 µM) was 104%. It also gave a viability, T/C (second compound 3 µM, first compound 0.3 µM) of 84.1%, a viability, T/C (second compound 3 µM, first compound 0.949 µM) of 87.5% and a viability, T/C (second compound 3 µM, first compound 3 µM) of 72.3%.
